How the values were obtained:
[1] = system: E. faecalis OG1RF; experiment: TIRF microscopy of wild type and L-form bacteria; format: cell-based; settings: 30 min, 37° C.; for fluorescence localisation, L-form cells: L-form E. faecalis OG1RF
Text: L-form bacteria and fluorescence microscopy were deployed to further study the interaction between PGOs and bacterial cell walls. L-form bacteria are deficient in cell wall components (referring to substrates forming the cell wall) or cell wall fragments (referring to the residues formed after cell autolysis) on their surface. BOCILLIN™ FL (Boc-FL), a fluorescent penicillin-derivative, was used to compare the localisation of penicillin-derivatives to that of PGOs.
The localisation of PGOs-rhodamine was also compared to the membrane dye Polymyxin B-BODIPY FL (Polymyxin B). […] In comparison, the PGOs localised in discrete punctae on the L-form cell surfaces. […] Thus, it is concluded that PGOs' localisation patterns within bacterial cell walls strongly resemble penicillin-derivatives (FIG. 9, top row).
L-forms were generated using DM3 agar by modified methods from reported protocol (Molec. Gen. Genet., 1979, 168, 111-115). DM3 medium consists of 1.2 wt % agar, 0.5 wt % Tryptone, 0.5 wt % yeast extract, 1 M Succinate (pH 7.3), 3.5 wt % K2HPO4 and 1.5 wt % KH2PO4, 20 wt % Glucose, 1 M MgCl2 and 2 wt % BSA, with the balance being water. Parental strain E. faecalis OG1RF was grown overnight at 37° C. in DM3 broth. 100 μL of an overnight culture was directly plated on DM3 agar plates supplemented with 200 μg/ml penicillin G. The plates were incubated at 37° C. Small fried egg-like shaped colonies appeared after 5 days. The colonies were restreaked on DM3 agar with 200 μg/ml penicillin G for a few times to get pure colonies, and serial passaging (ten times) of pure colonies in DM3 agar with decreasing penicillin G concentrations to generate stable L-forms. The stable L-forms were stored at −80° C. in 20% glycerol.
Fluorescence microscopy was performed on Nikon TIRF microscope (Nikon instruments, NY, USA). BODIPY FL and sulforhodamine B were excited at 488 and 560 nm and emitted at 512 and 580 nm respectively. […]

[2] = system: S. aureus and E. faecalis; experiment: STED super-resolution microscopy of cell walls that incorporated PGOs; format: cell-based
Protocol: To prepare samples for super resolution STED microscopy, overnight broth cultures were grown in 5 ml of fresh culture broth (1:100 dilution) to prepare logarithmic phase cultures after incubation at 37° C. for 4 hours in a shaking incubator (225 rpm). Then, bacteria cells were pelleted by centrifugation at 1,500×g for 5 min, suspended in culture media (MHB and BHI) at a concentration of 10^8 CFU ml^−1 and incubated for 1 h in the dark in the presence of 100 μg/ml of rhodamine-labeled derivative of 1 at 37° C. with agitation (225 rpm). […] Cells were fixed for 1 h at 37° C. in a shaking incubator (225 rpm), washed three times in PBS and applied to a sterile glass bottom collagen coated dish (MatTek Corporation).
STED super resolution microscopy was performed on a Leica TCS SP8 STED-3× microscope (Leica Microsystems, Wetzlar, Germany) at SingHealth Advanced Biomaging Core. 479 nm and 556 nm lasers were used for fluorescence excitation, while 660 nm STED laser was used for depletion. In order to achieve maximum lateral resolution, all images were acquired in 2D STED mode. Further image processing required deconvolution, which was done using Huygens Professional software (Scientific Volume Imaging, Hilversum, Netherlands).
To characterize the bacterial PG cell walls that incorporated PGOs, the microscope images obtained from Example 5 were further analysed.

## Polymyxin B
[1]
  fluorescence localisation, L-form cells: Strong uniform membranous staining

## Cc1cc(C)n2c1C=C1C=CC(CCC(=O)Nc3ccc(OCC(=O)N[C@@H]4C(=O)N5[C@@H]4SC(C)(C)[C@@H]5C(=O)[O-])cc3)=[N+]1[B-]2(F)F.[Na+] [Boc-FL]
[1]
  fluorescence localisation, L-form cells: only a few distinct fluorescent punctae
[1]; wild type E. faecalis OG1RF
  fluorescence localisation, wild type cells: intense fluorescence at the septum region and also the adjacent cell surface

## CCCCN(CCCC)c1ccc(/C=C/c2cc[n+](CCC[N+](C)(C)CCCN)cc2)cc1.Cl.[Cl-].[Cl-] [FM 1-43fx]
[2]
  localisation of signal on the bacterial cell: adsorbed directly onto the bacterial cell surface
